pIC50: −log10 of the molar value.
Assay: Inhibition of dyn2 in human U2OS cells assessed as clathrin-mediated endocytosis of Tfn after 30 mins

Row | pIC50 | SMILES
1 | 5.30 | CCCCCCCCNC(=O)/C(C#N)=C/c1cn(CCCN(C)C)c2ccccc12 [2-Cyano-N-octyl-3-(1-(3-dimethylaminopropyl)-1H-indol-3-yl)-acrylamide]
2 | 5.46 | CCCCCCCCNCc1cn(CCCN(C)C)c2ccccc12
